# Test system: MV-4-11 cells
# Test: Gene expression microarray analysis (Affymetrix PrimeView) and GSEA
# Type: cell-based, human
# Set-up: RFU PODN (11730768_x_at) / Fold change /veh PODN (11730768_x_at) / RFU LINC00158 (11744669_a_at) / Fold change /veh LINC00158 (11744669_a_at) / RFU DUSP10 (11751237_a_at) / Fold change /veh DUSP10 (11751237_a_at) / RFU ID3 (11757404_x_at) / Fold change /veh ID3 (11757404_x_at) / RFU PLEKHG5 (11737974_s_at) / Fold change /veh PLEKHG5 (11737974_s_at) / RFU LRRC4B (11730491_at) / Fold change /veh LRRC4B (11730491_at) / RFU GIMAP4 (11747438_a_at) / Fold change /veh GIMAP4 (11747438_a_at) / RFU KRT8 (11758183_x_at) / Fold change /veh KRT8 (11758183_x_at) / RFU CNN1 (11734310_a_at) / Fold change /veh CNN1 (11734310_a_at) / RFU VPS37D (11726825_at) / Fold change /veh VPS37D (11726825_at) / RFU C10orf10 (11716522_x_at) / Fold change /veh C10orf10 (11716522_x_at) / RFU KIR2DL2 /// KIR2DL4 /// KIR2DL5A /// KIR2DL5B /// KIR2DS1 /// KIR2DS2 /// KIR2DS3 /// KIR2DS4 /// KIR3DL3 /// KIR3DL3 /// KIR3DS1 (11738374_at) / Fold change /veh KIR2DL2 /// KIR2DL4 /// KIR2DL5A /// KIR2DL5B /// KIR2DS1 /// KIR2DS2 /// KIR2DS3 /// KIR2DS4 /// KIR3DL3 /// KIR3DL3 /// KIR3DS1 (11738374_at) / RFU C1QL1 (11718748_at) / Fold change /veh C1QL1 (11718748_at) / RFU TMPRSS4 (11747572_a_at) / Fold change /veh TMPRSS4 (11747572_a_at) / RFU HAMP (11756126_x_at) / Fold change /veh HAMP (11756126_x_at) / RFU RNFT2 (11725882_a_at) / Fold change /veh RNFT2 (11725882_a_at) / RFU NR4A2 (11747474_a_at) / Fold change /veh NR4A2 (11747474_a_at) / RFU ABCC12 (11746883_a_at) / Fold change /veh ABCC12 (11746883_a_at) / RFU TMEM136 (11760407_x_at) / Fold change /veh TMEM136 (11760407_x_at) / RFU CLDN22 /// WWC2 (11732394_at) / Fold change /veh CLDN22 /// WWC2 (11732394_at) / RFU HLA-DPB1 (11760878_x_at) / Fold change /veh HLA-DPB1 (11760878_x_at) / RFU SPINT1 (11716480_a_at) / Fold change /veh SPINT1 (11716480_a_at) / RFU GAP43 (11754022_s_at) / Fold change /veh GAP43 (11754022_s_at) / RFU A4GNT (11735810_at) / Fold change /veh A4GNT (11735810_at) / RFU PRB3 (11715151_x_at) / Fold change /veh PRB3 (11715151_x_at) / RFU TUBB4B (11761932_at) / Fold change /veh TUBB4B (11761932_at) / RFU CAPN14 (11732068_a_at) / Fold change /veh CAPN14 (11732068_a_at) / RFU TMCC2 (11721928_a_at) / Fold change /veh TMCC2 (11721928_a_at) / RFU IRGQ (11745062_a_at) / Fold change /veh IRGQ (11745062_a_at) / RFU FAM174B (11720279_a_at) / Fold change /veh FAM174B (11720279_a_at) / RFU TMPRSS4 (11748680_a_at) / Fold change /veh TMPRSS4 (11748680_a_at) / RFU FAM212B (11763350_a_at) / Fold change /veh FAM212B (11763350_a_at) / RFU PLEKHG5 (11743358_a_at) / Fold change /veh PLEKHG5 (11743358_a_at) / RFU ZSCAN30 (11745921_a_at) / Fold change /veh ZSCAN30 (11745921_a_at) / RFU CMKLR1 (11741424_a_at) / Fold change /veh CMKLR1 (11741424_a_at) / RFU LOC101060620 /// MAPK8IP1 (11723275_at) / Fold change /veh LOC101060620 /// MAPK8IP1 (11723275_at) / RFU SPTSSB (11747773_x_at) / Fold change /veh SPTSSB (11747773_x_at) / RFU PRSS12 (11739890_at) / Fold change /veh PRSS12 (11739890_at) / RFU BIN1 (11741810_x_at) / Fold change /veh BIN1 (11741810_x_at) / RFU WNT11 (11732464_a_at) / Fold change /veh WNT11 (11732464_a_at) / RFU C10orf10 (11716521_a_at) / Fold change /veh C10orf10 (11716521_a_at) / RFU C5orf56 (11738089_at) / Fold change /veh C5orf56 (11738089_at) / RFU CYB561 (11721691_x_at) / Fold change /veh CYB561 (11721691_x_at) / RFU ANKRD19P (11752326_a_at) / Fold change /veh ANKRD19P (11752326_a_at) / RFU OR2T12 /// OR2T33 /// OR2T8 (11738714_s_at) / Fold change /veh OR2T12 /// OR2T33 /// OR2T8 (11738714_s_at) / RFU VCAN (11748164_a_at) / Fold change /veh VCAN (11748164_a_at) / RFU JSRP1 (11732532_at) / Fold change /veh JSRP1 (11732532_at) / RFU KRTAP10-11 (11738290_x_at) / Fold change /veh KRTAP10-11 (11738290_x_at) / RFU MYO3A (11730013_a_at) / Fold change /veh MYO3A (11730013_a_at) / RFU EBF3 (11725865_a_at) / Fold change /veh EBF3 (11725865_a_at) / RFU CAMK2N1 (11719241_x_at) / Fold change /veh CAMK2N1 (11719241_x_at) / RFU C5orf56 (11738088_a_at) / Fold change /veh C5orf56 (11738088_a_at) / RFU OLFML3 (11715873_a_at) / Fold change /veh OLFML3 (11715873_a_at) / RFU LOC100653217 /// NTM (11731650_a_at) / Fold change /veh LOC100653217 /// NTM (11731650_a_at) / RFU MAPK11 (11762145_a_at) / Fold change /veh MAPK11 (11762145_a_at) / RFU FIZ1 (11724087_x_at) / Fold change /veh FIZ1 (11724087_x_at) / RFU OASL (11726364_x_at) / Fold change /veh OASL (11726364_x_at) / RFU SOX15 (11748057_x_at) / Fold change /veh SOX15 (11748057_x_at) / RFU CD79A (11719716_a_at) / Fold change /veh CD79A (11719716_a_at) / RFU HIST1H1D (11736915_at) / Fold change /veh HIST1H1D (11736915_at) / RFU CASKIN2 (11723855_a_at) / Fold change /veh CASKIN2 (11723855_a_at) / RFU LOC730098 (11760151_x_at) / Fold change /veh LOC730098 (11760151_x_at) / RFU OR4N2 (11742367_at) / Fold change /veh OR4N2 (11742367_at) / RFU PRRT2 (11749266_a_at) / Fold change /veh PRRT2 (11749266_a_at) / RFU SNX32 (11753110_a_at) / Fold change /veh SNX32 (11753110_a_at) / RFU CDHR5 (11726645_a_at) / Fold change /veh CDHR5 (11726645_a_at) / RFU RCAN1 (11760418_a_at) / Fold change /veh RCAN1 (11760418_a_at) / RFU FAM167A (11723789_a_at) / Fold change /veh FAM167A (11723789_a_at) / RFU FAM26E (11764081_at) / Fold change /veh FAM26E (11764081_at) / RFU ISYNA1 (11749810_s_at) / Fold change /veh ISYNA1 (11749810_s_at) / RFU ACY1 (11761880_at) / Fold change /veh ACY1 (11761880_at) / RFU 11764098_at / Fold change /veh 11764098_at / RFU SAMD14 (11745864_x_at) / Fold change /veh SAMD14 (11745864_x_at) / RFU NPB (11741838_a_at) / Fold change /veh NPB (11741838_a_at) / RFU TMPRSS6 (11731388_a_at) / Fold change /veh TMPRSS6 (11731388_a_at) / RFU KRTAP10-2 (11738614_at) / Fold change /veh KRTAP10-2 (11738614_at) / RFU ARHGAP8 /// PRR5-ARHGAP8 (11727945_x_at) / Fold change /veh ARHGAP8 /// PRR5-ARHGAP8 (11727945_x_at) / RFU KRTAP5-7 /// NADSYN1 (11734609_at) / Fold change /veh KRTAP5-7 /// NADSYN1 (11734609_at) / RFU RASL12 (11751679_a_at) / Fold change /veh RASL12 (11751679_a_at) / RFU CDKN2B (11736163_a_at) / Fold change /veh CDKN2B (11736163_a_at) / RFU PRF1 (11729649_at) / Fold change /veh PRF1 (11729649_at) / RFU, ZNF638 /// ZNF638-IT1 / Fold change vs veh, ZNF638 /// ZNF638-IT1 / RFU, PANK3 / Fold change vs veh, PANK3 / RFU, SH3YL1 / Fold change vs veh, SH3YL1 / RFU, ZEB2 / Fold change vs veh, ZEB2 / RFU, NRIP1 / Fold change vs veh, NRIP1 / RFU, PTTG1IP / Fold change vs veh, PTTG1IP / RFU, CAPN2 / Fold change vs veh, CAPN2 / RFU, MED14 / Fold change vs veh, MED14 / RFU, SNORA58 / Fold change vs veh, SNORA58 / RFU, C1orf63 / Fold change vs veh, C1orf63 / RFU, LRRFIP1 / Fold change vs veh, LRRFIP1 / RFU, NDUFAF7 / Fold change vs veh, NDUFAF7 / RFU, SLC12A2 / Fold change vs veh, SLC12A2 / RFU, IBTK / Fold change vs veh, IBTK / RFU, ESF1 / Fold change vs veh, ESF1 / Fold change vs veh, TMEM50B / RFU, TAOK1 / Fold change vs veh, TAOK1 / RFU, ACBD3 / Fold change vs veh, ACBD3 / RFU, TMA16 / Fold change vs veh, TMA16 / RFU, RWDD3 / Fold change vs veh, RWDD3 / RFU, BCAT1 / Fold change vs veh, BCAT1 / RFU, EDEM3 / Fold change vs veh, EDEM3 / RFU, TMEM33 / Fold change vs veh, TMEM33 / RFU, WDR75 / Fold change vs veh, WDR75 / RFU, AHCTF1 / Fold change vs veh, AHCTF1 / RFU, TFRC / Fold change vs veh, TFRC / RFU, ZDHHC17 / Fold change vs veh, ZDHHC17 / RFU, NOM1 / Fold change vs veh, NOM1 / RFU, ARL8B / Fold change vs veh, ARL8B / RFU, ZBTB11 / Fold change vs veh, ZBTB11 / RFU, TAMM41 / Fold change vs veh, TAMM41 / RFU, KIAA1704 /// LOC100996395 / Fold change vs veh, KIAA1704 /// LOC100996395 / RFU, ING1 / Fold change vs veh, ING1 / RFU, TRMT61B / Fold change vs veh, TRMT61B / RFU, FUBP3 / Fold change vs veh, FUBP3 / RFU, TP53 / Fold change vs veh, TP53 / RFU, TNKS2 / Fold change vs veh, TNKS2 / RFU, ZFP14 / Fold change vs veh, ZFP14 / RFU, ACTR2 / Fold change vs veh, ACTR2 / RFU, PPP3R1 / Fold change vs veh, PPP3R1 / RFU, PIK3R1 / Fold change vs veh, PIK3R1 / RFU, HNRNPA1 / Fold change vs veh, HNRNPA1 / RFU, RNF170 / Fold change vs veh, RNF170 / RFU, ZNF28 / Fold change vs veh, ZNF28 / RFU, RNGTT / Fold change vs veh, RNGTT / RFU, OGT / Fold change vs veh, OGT / RFU, BRD1 / Fold change vs veh, BRD1 / RFU, MARS / Fold change vs veh, MARS / RFU, ZNF655 / Fold change vs veh, ZNF655 / RFU, FAHD1 / Fold change vs veh, FAHD1 / RFU, BDP1 / Fold change vs veh, BDP1 / RFU, LRRCC1 / Fold change vs veh, LRRCC1 / RFU, ARID1A / Fold change vs veh, ARID1A / RFU, ZNF146 / Fold change vs veh, ZNF146 / RFU, ZNF330 / Fold change vs veh, ZNF330 / RFU, GPN3 / Fold change vs veh, GPN3 / RFU, C9orf123 / Fold change vs veh, C9orf123 / RFU, N4BP2L2 / Fold change vs veh, N4BP2L2 / RFU, ARFIP1 / Fold change vs veh, ARFIP1 / RFU, FAM179B / Fold change vs veh, FAM179B / RFU, BCL10 / Fold change vs veh, BCL10 / RFU, UHRF1BP1L / Fold change vs veh, UHRF1BP1L / RFU, BET1 / Fold change vs veh, BET1 / RFU, CNOT2 / Fold change vs veh, CNOT2 / RFU, ZNF268 / Fold change vs veh, ZNF268 / Fold change vs veh, ZNF507 / RFU, DGCR2 / Fold change vs veh, DGCR2 / RFU, WDSUB1 / Fold change vs veh, WDSUB1 / Fold change vs veh, HSP90B1 /// MIR3652 / RFU, ADSS / Fold change vs veh, ADSS / RFU, GK / Fold change vs veh, GK / RFU, ZNF148 / Fold change vs veh, ZNF148 / RFU, TAF9 / Fold change vs veh, TAF9 / RFU, SLC1A5 / Fold change vs veh, SLC1A5 / RFU, SLMO2 / Fold change vs veh, SLMO2 / RFU, ABCC4 / Fold change vs veh, ABCC4 / RFU, LOC101060439 /// RAP1B / Fold change vs veh, LOC101060439 /// RAP1B / RFU, RFX7 / Fold change vs veh, RFX7 / RFU, GTPBP10 / Fold change vs veh, GTPBP10 / RFU, CNEP1R1 / Fold change vs veh, CNEP1R1 / RFU, BIVM-ERCC5 /// ERCC5 / Fold change vs veh, BIVM-ERCC5 /// ERCC5 / RFU, ILF3 / Fold change vs veh, ILF3 / RFU 11762660_at / Fold change /veh 11762660_at / RFU VCAN (11757783_s_at) / Fold change /veh VCAN (11757783_s_at) / RFU DDX43 (11728927_at) / Fold change /veh DDX43 (11728927_at) / RFU KRT8 (11758188_x_at) / Fold change /veh KRT8 (11758188_x_at) / RFU NKD1 (11759106_at) / Fold change /veh NKD1 (11759106_at) / RFU SRD5A1 (11742802_a_at) / Fold change /veh SRD5A1 (11742802_a_at) / RFU TPSAB1 /// TPSB2 (11721975_s_at) / Fold change /veh TPSAB1 /// TPSB2 (11721975_s_at) / RFU GSTM3 (11746129_a_at) / Fold change /veh GSTM3 (11746129_a_at) / RFU IL23R (11737362_x_at) / Fold change /veh IL23R (11737362_x_at) / RFU TMEM51 (11727254_a_at) / Fold change /veh TMEM51 (11727254_a_at) / RFU PIWIL2 (11732686_x_at) / Fold change /veh PIWIL2 (11732686_x_at) / RFU ORM1 (11744905_x_at) / Fold change /veh ORM1 (11744905_x_at) / RFU CCDC152 (11743942_at) / Fold change /veh CCDC152 (11743942_at) / RFU ECM1 (11717891_a_at) / Fold change /veh ECM1 (11717891_a_at) / RFU IL23R (11748794_a_at) / Fold change /veh IL23R (11748794_a_at) / RFU TNFAIP8L3 (11732012_x_at) / Fold change /veh TNFAIP8L3 (11732012_x_at) / RFU MBOAT4 (11741988_at) / Fold change /veh MBOAT4 (11741988_at) / RFU 11764193_at / Fold change /veh 11764193_at / RFU TMEM53 (11763286_at) / Fold change /veh TMEM53 (11763286_at) / RFU MAGEB2 (11727129_at) / Fold change /veh MAGEB2 (11727129_at) / RFU TMEM200A (11744735_a_at) / Fold change /veh TMEM200A (11744735_a_at) / RFU CCDC152 (11751479_a_at) / Fold change /veh CCDC152 (11751479_a_at) / RFU FAM211A (11726209_a_at) / Fold change /veh FAM211A (11726209_a_at) / RFU RGS16 (11746705_a_at) / Fold change /veh RGS16 (11746705_a_at) / RFU VCAN (11755009_s_at) / Fold change /veh VCAN (11755009_s_at) / RFU RHOB (11743442_s_at) / Fold change /veh RHOB (11743442_s_at) / RFU RGS16 (11720943_a_at) / Fold change /veh RGS16 (11720943_a_at) / RFU RGS16 (11720944_at) / Fold change /veh RGS16 (11720944_at) / RFU, VPS4B / Fold change vs veh, VPS4B / RFU, CREB1 / Fold change vs veh, CREB1 / RFU, DNAJC13 / Fold change vs veh, DNAJC13 / RFU, GNAQ / Fold change vs veh, GNAQ / RFU, CDK5R1 / Fold change vs veh, CDK5R1 / RFU, ZRANB3 / Fold change vs veh, ZRANB3 / RFU, CUL4A / Fold change vs veh, CUL4A / RFU, CCNY / Fold change vs veh, CCNY / RFU, UFL1 / Fold change vs veh, UFL1 / RFU, COG3 / Fold change vs veh, COG3 / RFU, DIAPH2 / Fold change vs veh, DIAPH2 / RFU, SKA2 / Fold change vs veh, SKA2 / RFU, AFF3 / Fold change vs veh, AFF3 / RFU, LMF1 / Fold change vs veh, LMF1 / RFU, IPO11 / Fold change vs veh, IPO11 / RFU, DFFB / Fold change vs veh, DFFB / RFU, FOXP1 / Fold change vs veh, FOXP1 / RFU, CARD8 / Fold change vs veh, CARD8 / RFU, STRN3 / Fold change vs veh, STRN3 / RFU, ADK / Fold change vs veh, ADK / RFU, RASSF2 / Fold change vs veh, RASSF2 / RFU, WIPF1 / Fold change vs veh, WIPF1 / RFU, LARP1B / Fold change vs veh, LARP1B / RFU, RASA1 / Fold change vs veh, RASA1 / RFU, RB1 / Fold change vs veh, RB1 / RFU, PPFIA1 / Fold change vs veh, PPFIA1 / RFU, MAT2A / Fold change vs veh, MAT2A / RFU, CCT5 / Fold change vs veh, CCT5 / RFU, WDR92 / Fold change vs veh, WDR92 / RFU, CUX1 / Fold change vs veh, CUX1 / RFU, TTC7A / Fold change vs veh, TTC7A / RFU, TMEM135 / Fold change vs veh, TMEM135 / RFU, DEPTOR / Fold change vs veh, DEPTOR / RFU, CPM / Fold change vs veh, CPM / RFU, DNAJB6 / Fold change vs veh, DNAJB6 / RFU, CACNA2D3 / Fold change vs veh, CACNA2D3 / RFU, DTX4 / Fold change vs veh, DTX4 / RFU, TFCP2 / Fold change vs veh, TFCP2 / RFU, GMCL1 /// GMCL1P1 / Fold change vs veh, GMCL1 /// GMCL1P1 / RFU, AEBP2 / Fold change vs veh, AEBP2 / RFU, SNHG1 /// SNORD22 /// SNORD25 /// SNORD26 /// SNORD27 /// SNORD28 /// SNORD29 /// SNORD31 / Fold change vs veh, SNHG1 /// SNORD22 /// SNORD25 /// SNORD26 /// SNORD27 /// SNORD28 /// SNORD29 /// SNORD31 / Fold change (Aza/veh), C12orf56 (ProbeSet 11735607_a_at) / Fold change (ACY-1035/veh), C12orf56 (ProbeSet 11735607_a_at) / Fold change (Aza/veh), FGFR1OP (ProbeSet 11751329_s_at) / Fold change (ACY-1035/veh), FGFR1OP (ProbeSet 11751329_s_at) / Fold change (Aza/veh), VPS36 (ProbeSet 11739960_a_at) / Fold change (ACY-1035/veh), VPS36 (ProbeSet 11739960_a_at) / RFU SYPL1 (11715823_x_at) / Fold change /veh SYPL1 (11715823_x_at) / RFU IGFBP7 (11715501_s_at) / Fold change /veh IGFBP7 (11715501_s_at) / RFU REEP3 (11722064_at) / Fold change /veh REEP3 (11722064_at) / RFU IGLL1 (11728026_x_at) / Fold change /veh IGLL1 (11728026_x_at): dose or concentration left out as unconfirmed
# Conditions: MV-4-11 cells, 48 hours
smiles,measurement,value
Nc1ncn([C@@H]2O[C@H](CO)[C@@H](O)[C@H]2O)c(=O)n1 [azacitidine],Fold change /veh HLA-DPB1 (11760878_x_at),0.86

# Reference: article PMC5218480 (PLoS ONE, 2017)
